In brackets after ≈: the same amount, converted by molar mass. Structures can show the parent of a compound that is named as a salt.
How the values were obtained:
[1] = Accelerated stability of stressed solid samples, percentage remaining by HPLC; format: physicochemical; settings: for percentage remaining, condition (e): 40° C. with 75% relative humidity for seven days; for percentage remaining, condition (d): 70° C. with low humidity for seven days; for percentage remaining, condition (c): 105° C. under nitrogen for seven days (*=average of two samples); for percentage remaining, condition (b): 105° C. with atmospheric oxygen for seven days (*=average of two samples); for percentage remaining, condition (a): UV light for 7 days
From the text: Samples of swainsonine free base synthesized using synthetic routes developed by Dr. David Dime (Toronto Research Chemicals, Toronto, Ontario) and Dr. William Pearson (University of Michigan, Ann Arbor, Mich.), were recrystallized to obtain either the hydrochloride salt, the hydrobromide salt or the free base of swainsonine. Samples were weighed and exposed to the conditions described below.
To model long-term stability or shelf life, various conditions were used to accelerate the decomposition process. Samples of crystalline prism swainsonine hydrochloride salt and swainsonine free base (a white, fluffy powder obtained from swainsonine hydrochloride were recrystallized from chloroform-methanol-diethyl ether) were weighed and exposed to conditions described below (stressed samples). Unstressed samples were prepared at 1 mg/ml concentration and chromatographed in sextuplicate on each run. After the indicated time interval each stressed sample was diluted with mobile phase at the same concentration as the unstressed sample. The percentage remaining swainsonine hydrochloride or swainsonine free base was calculated based on the percentage of either the hydrochloride or the free base in the unstressed sample.
The conditions included (a) UV light for 7 days; (b) 105° C. with atmospheric oxygen for seven days (*=average of two samples); (c) 105° C. under nitrogen for seven days (*=average of two samples); (d) 70° C. with low humidity for seven days; and (e) 40° C. with 75% relative humidity for seven days. Other tests include (f) UV for 24 hours; (g) 100° C. aqueous solution for two hours; (h) aqueous acidic treatment for 24 hours; (i) aqueous alkali treatment for 4 hours; and (j) (aqueous) 3% hydrogen peroxide for 4 hours. […] The physical properties of swainsonine hydrochloride compared to the free base and swainsonine hydrobromide, and swainsonine hydrofluoride are shown in Table 5.

tumor cell invasion = settings: in vitro; cited from earlier work
LAK cell = settings: cited from earlier work
[2] = test system: splenic and bone marrow (BM) cell; settings: cited from earlier work
NK cell = settings: cited from earlier work
[3] = Solubility in distilled water at room temperature; format: physicochemical; settings: distilled water, water
Protocol: The melting point of the clear swainsonine hydrochloride crystal (prism) was 190-191° C. The solubility of swainsonine hydrochloride in distilled water at room temperature was about 3 g/ml, in contrast to the solubility of swainsonine free base, which is about 0.8 g/ml (see Table 5).

human MeWo melanoma = settings: orally or by mini-osmotic pumps; cited from earlier work
[4] = test system: granulocyte-macrophage progenitor cells (CFU-GM); assay: Murine bone marrow progenitor cell assay in methylcellulose, CFU-GM; format: cell-based, C57BL/6 mouse; settings: FIG. 11
Protocol: (§1) The healthy and GD0039 treated mice were euthanized by CO2 asphyxiation. Bone marrow (BM) cell suspensions were prepared under sterile conditions by flushing both femurs and tibiae with IMDM/FBS using a 26 gauge needle. Single cell suspensions were made up to 10.0 ml IMDM/FBS. The concentration of nucleated cells in each suspension was determined by triplicate counts on a hemocytometer. A portion of the cells was further diluted in media to the appropriate concentration before plating for the progenitor assay.
Colony-forming units (CFUs) were estimated by the methylcellulose method. One milliliter suspensions, containing 2×10^5 nucleated BM cells, in 0.1 ml of IMDM and 0.9 ml MethoCult (M3330), were plated in triplicate in 35 mm tissue culture dishes. Swainsonine hydrochloride or swainsonine were added to certain plates, in 0.1 ml of IMDM at concentrations of 30 μg/ml and 3 μg/ml, which gave final concentrations of […]. The MethoCult M3330 contains 30% FBS and 10 μg/ml erythropoietin and is designed for the growth of early erythroid progenitor cells (CFU-E), which were scored after 3 days of incubation at 37° C. in a humidified atmosphere containing 5% CO2. […] Colonies containing more than 20 cells were scored using an inverted microscope with brightfield optics and 40× or 100× magnification. […]

[5] = test system: early erythroid progenitor cells (CFU-E); assay: Murine bone marrow progenitor cell assay in methylcellulose, CFU-E; format: cell-based, C57BL/6 mice
Protocol: Pathogen-free C57BL/6 female mice, 8-9 weeks old, obtained from Jackson Laboratories were used. The room environment and photoperiod were controlled: 24° C.; humidity, 50±20%; 12 hr light and 12 hr dark. Mice were housed one per cage with ad libitum accesses to standard pelleted commercial laboratory diet and to sterile (autoclaved) tap water.
Swainsonine hydrochloride was manufactured by Seres Laboratories, Calif. FBS and methylcellulose (MethoCult M3330) were purchased from Stem Cell Technologies, Inc. (Vancouver. BC). Iscove's modified Dulbecco's medium was prepared using powdered media from Gibco BRL, deionized water and filter sterilization. For the handling of cells, the media was supplemented with 2% FBS and 50 μM β-mercaptoethanol (referred to as IMDM/FBS).
as §1
Colony-forming units (CFUs) were estimated by the methylcellulose method. One milliliter suspensions, containing 2×10^5 nucleated BM cells, in 0.1 ml of IMDM and 0.9 ml MethoCult (M3330), were plated in triplicate in 35 mm tissue culture dishes. […] The MethoCult M3330 contains 30% FBS and 10 μg/ml erythropoietin and is designed for the growth of early erythroid progenitor cells (CFU-E), which were scored after 3 days of incubation at 37° C. in a humidified atmosphere containing 5% CO2. […] Colonies containing more than 20 cells were scored using an inverted microscope with brightfield optics and 40× or 100× magnification.

[6] = mouse, in vivo; cited from earlier work
[7] = mouse, in vivo; cited from earlier work; remark: listed apart in the source
HT29m colon carcinoma = settings: orally or by mini-osmotic pumps; cited from earlier work
murine tumor cells = settings: organ-colonization and spontaneous metastasis assays; cited from earlier work

**Q.** For O[C@H]1[C@H]2[C@H](O)CCCN2C[C@H]1O [swainsonine], which “percentage remaining, condition (e)” value ([1]; listed as SW) is on record?
**A.** 102.5%

**Q.** And the “percentage remaining, condition (d)” value ([1]; listed as SW)?
**A.** 98.5%

**Q.** And the “percentage remaining, condition (c)” value ([1]; listed as SW)?
**A.** 9.7%*

**Q.** And the “percentage remaining, condition (b)” value ([1]; listed as SW)?
**A.** 20.0%*

**Q.** What about the “percentage remaining, condition (a)” value ([1]; listed as SW) of the same compound?
**A.** 99.3%

**Q.** What about the “tumor cell invasion through extracellular matrix” value (tumor cell invasion) of the same compound?
**A.** block tumor cell invasion

**Q.** What about the LAK cell activity (LAK cell) of the same compound?
**A.** increase

**Q.** And the “splenic and bone marrow (BM) cell proliferation” value [2]?
**A.** increase

**Q.** And the NK cell activity (NK cell)?
**A.** increase

**Q.** And the solubility ([3]; Table 5)?
**A.** 800 mg/mL (≈ 4620 mM)

**Q.** And the solubility ([3]; room temperature)?
**A.** ~800 mg/mL (≈ 4620 mM)

**Q.** What about the “growth rate of tumor xenografts” value (human MeWo melanoma) of the same compound?
**A.** inhibited the growth rate

**Q.** And the “effect on granulocyte-macrophage progenitor cells in vitro” value [4]?
**A.** stimulate

**Q.** What about the “increase in the number of early CFU-E” value ([5]; 0.03 μg/ml to 10 μg/ml in vitro) of the same compound?
**A.** ~3 fold

**Q.** What about the “number of early CFU-E, counted on day 3” value ([5]; added to methylcellulose in vitro) of the same compound?
**A.** significantly increased

**Q.** What about the “mean CFU-E of triplicate counts ± SD from 2 × 10^5 nucleated BM cells” value (shortened to “mean CFU-E of triplicate counts ± SD”) ([5]; mouse 1 (control), 0.3 μg/ml in vitro, in vitro control 54 ± 12) of the same compound?
**A.** 108 ± 21

**Q.** And the “mean CFU-E of triplicate counts ± SD” value ([5]; mouse 1 (control), 3 μg/ml in vitro, in vitro control 54 ± 12)?
**A.** 101 ± 12

**Q.** What about the “mean CFU-E of triplicate counts ± SD” value ([5]; mouse 2 (GD0039 treated in vivo, 20 μg/day for four days), 0.3 μg/ml in vitro) of the same compound?
**A.** 71 ± 15

**Q.** And the “mean CFU-E of triplicate counts ± SD” value ([5]; mouse 2 (GD0039 treated in vivo, 20 μg/day for four days), 3 μg/ml in vitro)?
**A.** 103 ± 1

**Q.** And the “lethal doses of irradiation” value [6]?
**A.** protect

**Q.** What about the “lethality of various chemotherapeutic agents” value [7] of the same compound?
**A.** protect against the lethality

**Q.** What about the “growth rate of tumor xenografts” value (HT29m colon carcinoma) of the same compound?
**A.** inhibited the growth rate

**Q.** And the “metastatic potential of treated murine tumor cells” value (murine tumor cells)?
**A.** less metastatic

**Q.** What does the source list for O[C@H]1[C@H]2[C@H](O)CCCN2C[C@H]1O [swainsonine hydrobromide, Swainsonine hydrobromide salt]?
**A.** percentage remaining, condition (e) ([1]; hydrobromide salt): 91.4%; percentage remaining, condition (d) ([1]; hydrobromide salt): 95.5%; percentage remaining, condition (c) ([1]; hydrobromide salt): 92.1%; percentage remaining, condition (b) ([1]; hydrobromide salt): 88.3%; percentage remaining, condition (a) ([1]; hydrobromide salt): 71.1%
